The values below come from publication PMC7416039 (Pharmacology Research & Perspectives, 2020).

The experiment concerns the target T1, human aldehyde dehydrogenase 2 (ALDH2) (Homo sapiens, UniProt P05091).
T1 sequence (P05091 18-517): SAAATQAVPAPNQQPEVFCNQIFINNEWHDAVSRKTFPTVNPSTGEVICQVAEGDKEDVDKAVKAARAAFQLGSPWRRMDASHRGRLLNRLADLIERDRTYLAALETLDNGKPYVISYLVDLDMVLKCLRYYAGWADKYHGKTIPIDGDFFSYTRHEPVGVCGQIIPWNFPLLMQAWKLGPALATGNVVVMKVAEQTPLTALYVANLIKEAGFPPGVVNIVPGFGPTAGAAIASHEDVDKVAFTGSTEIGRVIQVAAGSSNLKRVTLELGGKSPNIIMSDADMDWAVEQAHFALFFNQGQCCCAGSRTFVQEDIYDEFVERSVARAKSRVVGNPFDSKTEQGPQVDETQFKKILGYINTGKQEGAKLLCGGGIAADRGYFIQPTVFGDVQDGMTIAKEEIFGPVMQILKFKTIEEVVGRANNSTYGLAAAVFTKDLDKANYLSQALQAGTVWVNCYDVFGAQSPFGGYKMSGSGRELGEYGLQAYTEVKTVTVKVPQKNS
The experiment in a line: Reversible inhibition of ALDH2. The experiment is classed as biochemical.

As for `O=c1c(-c2ccc(O)cc2)coc2cc(O[C@@H]3O[C@H](CO)[C@@H](O)[C@H](O)[C@H]3O)ccc12` [Daidzin], the “% Remaining” value is listed as 106% (Daidzin 0.02 μmol/L); 102% (Daidzin 0.05 μmol/L); 93% (Daidzin 0.14 μmol/L); 96% (Daidzin 0.41 μmol/L); 76% (Daidzin 1.2 μmol/L); 57% (Daidzin 3.7 μmol/L). Further, the “% Remaining” value was found to be 27% (Daidzin 11 μmol/L), 16% (Daidzin 33 μmol/L) and 7% (Daidzin 100 μmol/L). For the same compound, the NADH is 132 nmol/min/mg (Daidzin 0.02 μmol/L); 127 nmol/min/mg (Daidzin 0.05 μmol/L); 117 nmol/min/mg (Daidzin 0.14 μmol/L); 120 nmol/min/mg (Daidzin 0.41 μmol/L); 95 nmol/min/mg (Daidzin 1.2 μmol/L); 72 nmol/min/mg (Daidzin 3.7 μmol/L). The NADH by setting is: (Daidzin 11 μmol/L) 33 nmol/min/mg; (Daidzin 33 μmol/L) 20 nmol/min/mg; (Daidzin 100 μmol/L) 8 nmol/min/mg.
